Laboratory results published in PMC12406199, “NanoDSF Screening for Anti-tubulin Agents Uncovers New Structure–Activity Insights” (Journal of Medicinal Chemistry, 2025).
Counter-ions that a name gives are not always drawn.

Tests used:
U87MG = experiment: cells; set-up: MTT viability assay on U87MG glioblastoma cells; details: Homo sapiens, U-87 MG, 72 h
Protocol: Glioblastoma cell culture routines, viability, and proliferation assays were performed as previously described. U87MG cells were maintained in complete MEM media supplemented with 10% FBS and 2 mM L-glutamine (Invitrogen, Paris, France). For cytotoxicity assays, cells were counted and plated in 96-well flat-bottom plates (50,000 cells/mL, 5000 cells per well). After 24 h, the cells were treated with increasing concentrations of the MTAs (0, 1, 5, 10, and 20–40 μM) in a vehicle solution, containing 0.05% DMSO. All concentrations were done in triplicates. The surviving cells were quantified after 72 h by the tetrazolium bromide MTT-assay, according to the manufacturer’s instructions. After cell lysis, the optical density was measured at 600 nm using a Multiskan MS Thermo plate reader (LabSystems, Waltham, MA, USA).

tubulin = tubulin (Ovis aries, UniProt D0VWY9+D0VWZ0); experiment: nanoDSF screen, shift of polymerization temperature at about […]; type: biochemical
Chain of tubulin (D0VWY9 entry or part of it): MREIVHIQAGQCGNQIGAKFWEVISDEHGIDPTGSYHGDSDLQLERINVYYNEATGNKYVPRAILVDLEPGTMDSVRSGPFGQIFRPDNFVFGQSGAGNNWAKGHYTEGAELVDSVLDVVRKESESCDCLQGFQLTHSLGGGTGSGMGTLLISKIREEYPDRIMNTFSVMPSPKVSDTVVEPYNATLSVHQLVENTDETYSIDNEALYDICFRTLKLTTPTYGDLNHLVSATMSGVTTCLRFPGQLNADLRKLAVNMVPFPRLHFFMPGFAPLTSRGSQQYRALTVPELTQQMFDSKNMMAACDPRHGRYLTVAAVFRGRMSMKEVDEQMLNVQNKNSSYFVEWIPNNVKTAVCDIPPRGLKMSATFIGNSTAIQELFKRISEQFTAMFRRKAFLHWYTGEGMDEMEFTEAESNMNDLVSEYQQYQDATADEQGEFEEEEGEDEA
Chain of tubulin (D0VWZ0 entry or part of it): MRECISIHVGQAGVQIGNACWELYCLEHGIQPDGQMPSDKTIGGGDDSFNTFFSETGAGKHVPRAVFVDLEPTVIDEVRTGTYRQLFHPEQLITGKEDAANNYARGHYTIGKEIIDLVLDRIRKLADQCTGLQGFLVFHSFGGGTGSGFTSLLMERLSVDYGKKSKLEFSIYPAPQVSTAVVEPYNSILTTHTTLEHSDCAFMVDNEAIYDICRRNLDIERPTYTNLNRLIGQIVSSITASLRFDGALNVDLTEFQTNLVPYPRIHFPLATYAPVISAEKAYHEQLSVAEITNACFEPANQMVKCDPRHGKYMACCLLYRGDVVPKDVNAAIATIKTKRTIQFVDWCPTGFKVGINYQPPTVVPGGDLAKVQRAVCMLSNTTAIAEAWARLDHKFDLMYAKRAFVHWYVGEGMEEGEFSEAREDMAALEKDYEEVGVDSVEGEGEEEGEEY

| SMILES | IC50 (U87MG) | ΔTm at 50 µM (tubulin) |
| --- | --- | --- |
| CCOC(=O)C1=C(C)NC(C)=C(C(=O)OC)C1c1cccc([N+](=O)[O-])c1 (stereo not drawn) [NTD, Nitrendipine] | 36.8 ± 3.3 µM |  |
| Clc1ccc(C(Cn2ccnc2)OCc2csc3c(Cl)cccc23)c(Cl)c1 (stereo not drawn) [STZ, Sertaconazole nitrate] | 10.7 ± 1.3 µM |  |
| COC1=CC(=O)C[C@@H](C)[C@]12Oc1c(Cl)c(OC)cc(OC)c1C2=O [GSF, Griseofulvin] | 24.4 ± 3.7 µM |  |
| OCCN1CCN(CC/C=C2/c3ccccc3Sc3ccc(C(F)(F)F)cc32)CC1 [FPX, Flupentixol] | 9.8 ± 1.8 µM |  |
| C#C[C@]1(O)CC[C@H]2[C@@H]3CCc4cc(O)ccc4[C@H]3CC[C@@]21C [EES, Ethinylestradiol] | 15.7 ± 0.8 µM |  |
| c1ccc2c(c1)Nc1ccccc1S2 [PTZ, Phenothiazine] | 60.2 ± 9.2 µM |  |
| CCc1oc2ccccc2c1C(=O)c1ccc(O)cc1 [BZ, Benzarone] | 7.4 ± 0.7 µM |  |
| CC[C@H](c1ccc(O)cc1)[C@@H](CC)c1ccc(O)cc1 [Hexestrol] | 20.2 ± 0.5 µM |  |
| Clc1ccc(C(Cn2ccnc2)OCc2c(Cl)cccc2Cl)c(Cl)c1 (stereo not drawn) [ICZ, Isoconazole] | 33.1 ± 1.8 µM |  |
| COC(=O)C1=C(C)NC(C)=C(C(=O)OCC(C)C)C1c1ccccc1[N+](=O)[O-] (stereo not drawn) [NSD, Nisoldipine] | 25.3 ± 1.6 µM |  |
| C/C=C(/C(=C/C)c1ccc(O)cc1)c1ccc(O)cc1 [DE, Dienestrol] | 23.6 ± 1 µM |  |
| CNCCC=C1c2ccccc2C=Cc2ccccc21 [nCBP, Norcyclobenzaprine] | 15.2 ± 0.8 µM |  |
| COC(=O)Nc1nc2ccc(C(=O)c3cccs3)cc2[nH]1 [NCZ, Nocodazole] | < 0.1 µM | 6 °C |
| CC(C)c1cccc(C(C)C)c1O [PPF, Propofol] | 26.6 ± 2.5 µM |  |
| CCN(CC)C(=S)SSC(=S)N(CC)CC [DFM, Disulfiram] | 12 ± 1.6 µM |  |
| CN(C)CC/C=C1/c2ccccc2Sc2ccc(Cl)cc21 [CPX, Chlorprothixene] | 27.6 ± 2.2 µM |  |
| N=C(N)Nc1ccc(C(=O)Oc2ccc3cc(C(=N)N)ccc3c2)cc1 [NFM, Nafamostat] | 45.2 ± 6.1 µM |  |
| N#CC(c1ccc(Cl)cc1)c1c(Cl)cc(-n2ncc(=O)[nH]c2=O)cc1Cl (stereo not drawn) [DCZ, Diclazuril] | 48.9 ± 6 µM |  |
| CN(C)CCOc1ccc(/C(=C(/CCCl)c2ccccc2)c2ccccc2)cc1 [TMF, Toremifene] | 13.3 ± 1.9 µM |  |
| Oc1cc(Cl)ccc1Oc1ccc(Cl)cc1Cl [TCL, Triclosan] | 11.6 ± 0.5 µM |  |
| C[C@]12CC[C@@H]3c4ccc(O)cc4CC[C@H]3[C@@H]1CC[C@@H]2O [ED, 17β-estradiol] | 30.7 ± 1.9 µM |  |
| O[C@@H](c1cc(C(F)(F)F)nc2c(C(F)(F)F)cccc12)[C@H]1CCCCN1 (racemic) [MFQ, Mefloquine] | 11.6 ± 1.2 µM |  |
| CN1CCN(CCCN2c3ccccc3Sc3ccc(C(F)(F)F)cc32)CC1 [TFP, Trifluoperazine] | 17.3 ± 3.2 µM |  |
| CN(C)CCCN1c2ccccc2Sc2ccc(Cl)cc21 [CPZ, Chlorpromazine] | 4.5 ± 0.5 µM |  |
| COC(=O)Nc1nc2cc([S+]([O-])c3ccccc3)ccc2[nH]1 (stereo not drawn) [OFZ, Oxfendazole] | 17 ± 1 µM |  |
| CSc1nc2cc(Cl)c(Oc3cccc(Cl)c3Cl)cc2[nH]1 [TCZ, Triclabendazole] | 15.1 ± 0.9 µM |  |

| SMILES | IC50 (U87MG) | ΔTm at 50 µM (tubulin) |
| --- | --- | --- |
| Nc1cc(C(Cl)=C(Cl)Cl)c(S(N)(=O)=O)cc1S(N)(=O)=O [CLS, Clorsulon] | 66.8 ± 13.3 µM |  |
| CNCCC=C1c2ccccc2CCc2ccccc21 [NTP, Nortriptyline] | 20.5 ± 1.5 µM |  |
| CN(C)c1ccc2nc3ccc(=[N+](C)C)cc-3sc2c1 [MB, Methylene Blue] | 64.2 ± 9.9 µM |  |
| CNCCCC1c2ccccc2C=Cc2ccccc21 [PTP, Protriptyline hydrochloride] | 17.7 ± 1.5 µM |  |
| C[C@H]1[C@H](OC(=O)CCC(=O)O)O[C@@H]2O[C@@]3(C)CC[C@H]4[C@H](C)CC[C@@H]1[C@@]24OO3 [ASN, Artesunate] | 24 ± 4.1 µM |  |
| COC(=O)Nc1nc2ccc(Sc3ccccc3)cc2[nH]1 [FBZ, Fenbendazole] | 0.2 µM |  |
| C[C@@H](O[C@H]1OCCN(Cc2n[nH]c(=O)[nH]2)[C@H]1c1ccc(F)cc1)c1cc(C(F)(F)F)cc(C(F)(F)F)c1 [APT, Aprepitant] | 41.8 ± 31.8 µM |  |
| Oc1c(Cl)cc(Cl)c(Cl)c1Cc1c(O)c(Cl)cc(Cl)c1Cl [HCP, Hexachlorophene] | 5.1 ± 0.7 µM |  |
| C[C@]12C=CC(=O)C=C1CC[C@@H]1[C@@H]2CC[C@@]2(C)[C@H]1CC[C@]2(C)O [MAS, Methandrostenolone] | 58.7 ± 5.1 µM |  |
| CCSc1ccc2c(c1)N(CCCN1CCN(C)CC1)c1ccccc1S2 [TEP, Thiethylperazine] | 8.4 ± 0.2 µM |  |
| CCCSc1ccc2nc(NC(=O)OC)[nH]c2c1 [ABZ, Albendazole] | 0.3 µM | 6.4 °C |
| Cc1cc2nc3ccc(N(C)C)cc3[s+]c2cc1N [TBO, Tolonium (Toluidine Blue O)] | 6.3 ± 0.3 µM |  |
| CCc1oc2ccccc2c1C(=O)c1cc(Br)c(O)c(Br)c1 [BZB, Benzbromarone] | 62.1 ± 2.8 µM |  |
| COc1ccc(C(=O)c2ccccc2)c(O)c1 [OXY, Oxybenzone] | 14.4 ± 7 µM |  |
| O=C1Nc2ccc(Cl)cc2[C@@](C#CC2CC2)(C(F)(F)F)O1 [EFV, Efavirenz] | 26.7 ± 2.6 µM |  |
| O=c1c2ccccc2[se]n1-c1ccccc1 [EBS, Ebselen] | 50.9 ± 32.7 µM |  |
| Cc1c(C)c2c(c(C)c1O)CCC(C)(COc1ccc(CC3SC(=O)NC3=O)cc1)O2 (stereo not drawn) [TGZ, Troglitazone] | 39.5 ± 1 µM |  |
| COC(=O)Nc1nc2cc(C(=O)c3ccc(F)cc3)ccc2[nH]1 [FLU, Flubendazol] | 0.6 µM |  |
| CCCOc1ccc2[nH]c(NC(=O)OC)nc2c1 [OBZ, Oxibendazol] | 1.8 ± 0.3 µM |  |
| OCCN1CCN(CCCN2c3ccccc3Sc3ccc(Cl)cc32)CC1 [PPZ, Perphenazine] | 9.8 ± 0.4 µM |  |
| O=C1NCCN1CCN1CCC(c2cn(-c3ccc(F)cc3)c3ccc(Cl)cc23)CC1 [STD, Sertindole] | 6.7 ± 0.2 µM |  |
| CCOC(=O)C1=C(C)NC(C)=C(C(=O)OC)C1c1cccc(Cl)c1Cl (stereo not drawn) [FDP, Felodipine] | 13.7 ± 4 µM |  |
| CN(C)CCCN1c2ccccc2Sc2ccc(C(F)(F)F)cc21 [TFZ, Triflupromazine] | 6.5 ± 0.6 µM |  |
| Clc1ccc(C(c2ccccc2Cl)C(Cl)Cl)cc1 (stereo not drawn) [MTT, Mitotane] | 23.7 ± 2.7 µM |  |
| Clc1ccc(C(Cn2ccnc2)OCc2ccsc2Cl)c(Cl)c1 (stereo not drawn) [TOZ, Tioconazole] | 18.3 ± 1.4 µM |  |
| Oc1ccc(Cl)cc1Cc1cc(Cl)ccc1O [DCP, Dichlorophen] | 7.7 ± 1.2 µM |  |
